Measurements from PubChem BioAssay AID1259407 (Chemical Carcinogenesis Research Information System (CCRIS), 2018).
Calls of active or inactive are those of the source. How the calls were made is not given here.

System: CCRIS mutagenicity, Ames/micronucleus/aberration tests
Assay: CCRIS mutagenicity studies

Q: Which results are given for `OO`?
A: mutagenic call (End Point: IN VITRO CHROMOSOMAL ABERRATIONS, Test System: CHO CELLS, Metabolic Activation: NONE): active; positive (structural changes); mutagenic call (End Point: IN VITRO CHROMOSOMAL ABERRATIONS, Test System: CHO-K1, Metabolic Activation: NONE): active; positive; mutagenic call (End Point: IN VITRO CHROMOSOMAL ABERRATIONS, Test System: SYRIAN HAMSTER EMBRYO (SHE) CELLS, Metabolic Activation: NONE): active; positive (structural changes); mutagenic call (End Point: IN VITRO MICRONUCLEUS, Test System: CHL/IU CELLS, Metabolic Activation: NONE): active; positive; mutagenic call (End Point: IN VITRO MICRONUCLEUS, Test System: CHO CELLS, Metabolic Activation: RAT, LIVER, S-9, AROCLOR 1254): inactive; negative; mutagenic call (End Point: IN VITRO MICRONUCLEUS, Test System: HUMAN LYMPHOCYTES, Metabolic Activation: NONE): inactive; negative; main effect of h2o2 was necrosis; mutagenic call (End Point: In vitro micronucleus, Test System: Chinese hamster V79 cells, Metabolic Activation: None): active; positive (hibiscus tiliaceus l methanolic extract at doses above 0.010 mg/ml had; mutagenic call (End Point: In vitro micronucleus, Test System: Chinese hamster ovary (CHO) cells, Metabolic Activation: None): active; positive (lycopene (10, 25 and 50 um) significantly reduced the number of micron; mutagenic call (Test System: AMES SALMONELLA TYPHIMURIUM, Strain/Indicator: SB1106, Metabolic Activation: NONE, Method: PREINCUBATION): active; positive; mutagenic call (Test System: AMES SALMONELLA TYPHIMURIUM, Strain/Indicator: SB1106, Metabolic Activation: NONE, Method: STANDARD PLATE): active; positive; mutagenic call (Test System: AMES SALMONELLA TYPHIMURIUM, Strain/Indicator: SB1106P, Metabolic Activation: NONE, Method: PREINCUBATION): active; positive; mutagenic call (Test System: AMES SALMONELLA TYPHIMURIUM, Strain/Indicator: SB1106P, Metabolic Activation: NONE, Method: STANDARD PLATE): active; positive; mutagenic call (Test System: AMES SALMONELLA TYPHIMURIUM, Strain/Indicator: SB1111, Metabolic Activation: NONE, Method: PREINCUBATION): inactive; negative; mutagenic call (Test System: AMES SALMONELLA TYPHIMURIUM, Strain/Indicator: SB1111, Metabolic Activation: NONE, Method: STANDARD PLATE): active; positive; mutagenic call (Test System: AMES SALMONELLA TYPHIMURIUM, Strain/Indicator: TA92, Metabolic Activation: NONE, Method: PREINCUBATION): inactive; negative; mutagenic call (Test System: AMES SALMONELLA TYPHIMURIUM, Strain/Indicator: TA97, Metabolic Activation: NONE, Method: STANDARD PLATE): active; positive; mutagenic call (Test System: AMES SALMONELLA TYPHIMURIUM, Strain/Indicator: TA97, Metabolic Activation: RAT, LIVER, S-9, PHENOBARBITAL, Method: LIQUID INCUBATION): active; positive; mutagenic call (Test System: AMES SALMONELLA TYPHIMURIUM, Strain/Indicator: TA97, Metabolic Activation: RAT, LIVER, S-9, PHENOBARBITAL, Method: STANDARD PLATE): active; positive; mutagenic call (Test System: AMES SALMONELLA TYPHIMURIUM, Strain/Indicator: TA98, Metabolic Activation: NONE, Method: PREINCUBATION): inactive; negative; mutagenic call (Test System: AMES SALMONELLA TYPHIMURIUM, Strain/Indicator: TA98, Metabolic Activation: NONE, Method: STANDARD PLATE): inactive; negative; mutagenic call (Test System: AMES SALMONELLA TYPHIMURIUM, Strain/Indicator: TA98, Metabolic Activation: RAT, LIVER, S-9, AROCLOR 1254, Method: PREINCUBATION): inactive; negative; mutagenic call (Test System: AMES SALMONELLA TYPHIMURIUM, Strain/Indicator: TA98, Metabolic Activation: RAT, LIVER, S-9, AROCLOR 1254, Method: STANDARD PLATE): inactive; negative; mutagenic call (Test System: AMES SALMONELLA TYPHIMURIUM, Strain/Indicator: TA100, Metabolic Activation: NONE, Method: PREINCUBATION): inactive; negative; mutagenic call (Test System: AMES SALMONELLA TYPHIMURIUM, Strain/Indicator: TA100, Metabolic Activation: NONE, Method: STANDARD PLATE): active; positive; mutagenic call (Test System: AMES SALMONELLA TYPHIMURIUM, Strain/Indicator: TA100, Metabolic Activation: RAT, LIVER, S-9, AROCLOR 1254, Method: PREINCUBATION): inactive; negative; mutagenic call (Test System: AMES SALMONELLA TYPHIMURIUM, Strain/Indicator: TA100, Metabolic Activation: RAT, LIVER, S-9, AROCLOR 1254, Method: STANDARD PLATE): active; positive; mutagenic call (Test System: AMES SALMONELLA TYPHIMURIUM, Strain/Indicator: TA102, Metabolic Activation: RAT, LIVER, S-9, AROCLOR 1254, Method: PREINCUBATION): inactive; negative; mutagenic call (Test System: AMES SALMONELLA TYPHIMURIUM, Strain/Indicator: TA104, Metabolic Activation: NONE, Method: PREINCUBATION): active; positive; mutagenic call (Test System: AMES SALMONELLA TYPHIMURIUM, Strain/Indicator: TA104, Metabolic Activation: NONE, Method: STANDARD PLATE): active; positive; mutagenic call (Test System: AMES SALMONELLA TYPHIMURIUM, Strain/Indicator: TA1535, Metabolic Activation: NONE, Method: PREINCUBATION): inactive; negative; mutagenic call (Test System: AMES SALMONELLA TYPHIMURIUM, Strain/Indicator: TA1535, Metabolic Activation: NONE, Method: STANDARD PLATE): inactive; negative
